These results are taken from US10925854B2, “Methods and compositions for preventing or treating fatty liver, protecting liver function or ameliorating liver diseases caused by fatty liver or other associated disorders” (SINEW PHARMA INC., priority 2015, dated 2021).

Read-outs that look alike come from different tables or passages of the source.

This assay has as its system HepG2 fatty liver cells (induced with oleic acid). Kind of assay: Reduction of TG content in oleic acid-induced HepG2 fatty liver cells. The class given is cell-based, human. The following applies: for inhibition at 1 µM: Homo sapiens, read-out: TG reduction rate. The method, then:
The activity of the various compounds of the present invention in reduction of fat content was analyzed by using human hepatoma cell line Hep G2.
HepG2 cell lines (15×10^6 cells) were cultured in DMEM culture No. B, incubated in an incubator with 5% CO2 at 37° C. for 24 hours, cultured in DMEM culture No. C (serum-free medium) for 24 hours, and finally cultured in DMEM culture No. D (containing oleate/albumin complex) for another 48 hours to induce HepG2 cell lines to form fatty liver cells.
HepG2 cell lines were divided into six groups, including: (1) Blank: no treatment; (2) DMSO group: cells from Blank were treated with dimethyl sulfoxide (DMSO); (3) Control: induction with oleic acid to form fatty liver cells; (4) Vehicle group: fatty liver cells formed by induction with oleic acid were treated with DMSO; (5) Positive control: fatty liver cells were treated with silymarin; and (6) Test Group: fatty liver cells were treated with various compounds of the present invention.
After incubation for 72 hours, the treated cells from each group were successively washed twice with PBS, and then incubated with 0.5 ml of trypsin/EDTA for 3 minutes. Afterwards, the cells were scraped with 2 ml of PBS and then transferred to the centrifuge tube to be shattered by ultrasonic. 20 μl of the cell extracts was taken to determine the content of protein. TG determination was performed using commercially available combination of agents (Randox). The TG content obtained above was divided by the protein content to obtain a ratio, representing a relative TG content in the cells.
The equation for calculating reduction rate (%) of TG was as follows: [1−(TG content of Test Group−TG content of Blank)/(TG content of Oleic acid induction Group−TG content of Blank)]×100%.

[1] abbreviates: 72 h, tested substances 1.0 uM, fatty liver cells from HepG2.

`O=C1c2c(O)cc(O)cc2O[C@H](c2ccc(O)c(O)c2)[C@H]1O` [(+)-taxifolin]: the inhibition at 1 µM under setting [1] worked out at 17.9 ± 8.35%.

`O=c1cc(-c2ccccc2)oc2cc(O)c(O)c(O)c12` [baicalein]: under setting [1], the inhibition at 1 µM amounted to 7.09 ± 10.9%.

For `O=C(O)[C@H]1O[C@@H](Oc2cc3oc(-c4ccccc4)cc(=O)c3c(O)c2O)[C@H](O)[C@@H](O)[C@@H]1O` [baicalin], under setting [1], the inhibition at 1 µM is 9.21 ± 6.21%.

For `O=C(O)CC(O)(CC(=O)O)C(=O)O` [citric acid], the inhibition at 1 µM under setting [1] was found to be 2.55 ± 4.43%.

For `O=c1c(-c2ccc(O)cc2)coc2cc(O)ccc12` [daidzein], under setting [1], the inhibition at 1 µM turned out to be 42.3 ± 5.34%.

Regarding `COc1ccc(-c2cc(=O)c3c(O)cc(O[C@@H]4O[C@H](CO[C@@H]5O[C@@H](C)[C@H](O)[C@@H](O)[C@H]5O)[C@@H](O)[C@H](O)[C@H]4O)cc3o2)cc1O` [diosmin], the inhibition at 1 µM under setting [1] amounted to 11.9 ± 3.73%.

In the case of `CC/C=C\C/C=C\C/C=C\C/C=C\C/C=C\CCCC(=O)O` [eicosapentaenoic acid (EPA), eicosapentaenoic acid], under setting [1], the inhibition at 1 µM amounted to 26.1 ± 6.14%.

As for `CC(C)[C@@H](C)/C=C/[C@@H](C)[C@H]1CC[C@H]2C3=CC=C4C[C@@H](O)CC[C@]4(C)[C@H]3CC[C@]12C` [ergosterol], the inhibition at 1 µM under setting [1] was determined as 34.2 ± 3.69%.

`COc1ccc(-c2coc3cc(O)ccc3c2=O)cc1` [formononetin]: the inhibition at 1 µM under setting [1] worked out at 29.6 ± 1.44%.

As to `O=c1c(O)c(-c2ccccc2)oc2cc(O)cc(O)c12` [galangin], under setting [1], the inhibition at 1 µM worked out at 28.1 ± 8.62%.

For the molecule `OCC(O)CO` [glycerrin, glycerin], the inhibition at 1 µM under setting [1] was 16.2 ± 4.25%.

As for `CC1(C)[C@@H](O[C@H]2O[C@H](C(=O)O)[C@@H](O)[C@H](O)[C@H]2O[C@@H]2O[C@H](C(=O)O)[C@@H](O)[C@H](O)[C@H]2O)CC[C@]2(C)[C@H]3C(=O)C=C4[C@@H]5C[C@@](C)(C(=O)O)CC[C@]5(C)CC[C@@]4(C)[C@]3(C)CC[C@@H]12` [glycyrrhizin], the inhibition at 1 µM under setting [1] was determined as 10.6 ± 7.4%.

On to `O=c1c(O[C@@H]2O[C@H](CO)[C@H](O)[C@H](O)[C@H]2O)c(-c2ccc(O)c(O)c2)oc2cc(O)cc(O)c12` [hyperoside], for which the inhibition at 1 µM under setting [1] turned out to be 30.5 ± 2.8%.

Regarding `O=c1cc(-c2ccc(O)cc2)oc2cc(O)c([C@@H]3O[C@H](CO)[C@@H](O)[C@H](O)[C@H]3O)c(O)c12` [isovitexin], the inhibition at 1 µM under setting [1] was 35.9 ± 3.35%.

As to `O=c1c(O)c(-c2ccc(O)cc2)oc2cc(O)cc(O)c12` [kaempferol], under setting [1], the inhibition at 1 µM amounted to 36.5 ± 4.78%.

Turning to `O=c1cc(-c2ccc(O)c(O)c2)oc2cc(O)cc(O)c12` [luteolin], the inhibition at 1 µM under setting [1] stood at 6.95 ± 15.2%.

`O=c1c(O)c(-c2ccc(O)cc2O)oc2cc(O)cc(O)c12` [morin]: the inhibition at 1 µM under setting [1] came to 25.8 ± 10.7%.

Regarding `CCCCCCCCCCCCCC(=O)OCC` [myristic acid ethyl ester], the inhibition at 1 µM under setting [1] is 28.9 ± 3.91%.

With `C[C@@H]1O[C@@H](O[C@H]2[C@H](Oc3cc(O)c4c(c3)O[C@H](c3ccc(O)cc3)CC4=O)O[C@H](CO)[C@@H](O)[C@@H]2O)[C@H](O)[C@H](O)[C@H]1O` [naringin], the inhibition at 1 µM under setting [1] was determined as 12.7 ± 3.72%.

Take `CC(Cc1ccc(O)c(O)c1)C(C)Cc1ccc(O)c(O)c1` (stereo not drawn) [nordihydroguaiaretic acid]: the inhibition at 1 µM under setting [1] stood at 15.9 ± 2.3%.

For `O=C(CCc1ccc(O)cc1)c1c(O)cc(O)cc1O[C@@H]1O[C@H](CO)[C@@H](O)[C@H](O)[C@H]1O` [phloridzin], the inhibition at 1 µM under setting [1] was 42.4 ± 6.05%.

As to `COc1ccc([C@@H]2CC(=O)c3c(O)cc(O[C@@H]4O[C@H](CO)[C@@H](O)[C@H](O)[C@H]4O[C@@H]4O[C@@H](C)[C@H](O)[C@@H](O)[C@H]4O)cc3O2)cc1` [poncirin], the inhibition at 1 µM under setting [1] was 38.1 ± 7.22%.

For `O=C(O)c1ccc(O)c(O)c1` [protocatechuic acid], under “HepG2, 72 h”, the inhibition at 1 µM was 18.6 ± 7.6%.

As to `C[C@@H]1O[C@@H](Oc2c(-c3ccc(O)c(O)c3)oc3cc(O)cc(O)c3c2=O)[C@H](O)[C@H](O)[C@H]1O` [quercitrin], for the setting “HepG2, 72 h”, the inhibition at 1 µM turned out to be 9.15 ± 9.24%.

As to `COc1cc(C2Oc3cc([C@H]4Oc5cc(O)cc(O)c5C(=O)[C@@H]4O)ccc3OC2CO)ccc1O` (stereo partly drawn) [silybin], the inhibition at 1 µM under setting [1] came out at 30.3 ± 3.24%.

Turning to `COc1ccc(-c2cc(=O)c3c(OC)c(OC)c(OC)cc3o2)cc1OC` [sinensetin], the inhibition at 1 µM under setting [1] is 37 ± 4.84%.

For `CCCCCCCCCCCCOS(=O)(=O)[O-].[Na+]` [sodium lauryl sulfate], under setting [1], the inhibition at 1 µM came to 38.7 ± 4.65%.

Take `C/C=C/C=C/C(=O)O` [sorbic acid]: the inhibition at 1 µM under setting [1] is 2.03 ± 1.96%.

On to `OC[C@@H](O)[C@@H](O)[C@H](O)[C@@H](O)CO` [sorbitol], for which the inhibition at 1 µM under setting [1] came to 20.1 ± 2.57%.

On to `C=C[C@H]1[C@H](O[C@@H]2O[C@H](CO)[C@@H](O)[C@H](O)[C@H]2O)OC=C2C(=O)OCC[C@]21O` [swrtiamarin, swertiamarin], for which the inhibition at 1 µM under setting [1] amounted to 6.72 ± 11%.

With `O=C(O)/C=C/c1ccccc1` [trans-Cinnamic Acid], the inhibition at 1 µM under setting [1] turned out to be 15.8 ± 0.82%.

Turning to `O=c1ccc2ccc(O)cc2o1` [umbelliferone], the inhibition at 1 µM under setting [1] stood at 17.4 ± 2.57%.

For `C[C@H]1[C@H](C)CC[C@]2(C(=O)O)CC[C@]3(C)C(=CC[C@@H]4[C@@]5(C)CC[C@H](O)C(C)(C)[C@@H]5CC[C@]43C)[C@H]12` [ursolic Acid], the inhibition at 1 µM under setting [1] was 35.9 ± 8.92%.

Take `OC[C@@H](O)[C@H](O)[C@@H](O)CO` [xylitol]: the inhibition at 1 µM under setting [1] was 7.36 ± 6.34%.

As to `C=CC(=C)CCC=C(C)C` [β-myrcene], the inhibition at 1 µM under setting [1] came out at 34 ± 11.2%.

Take (−)-epicatechin-3-gallate: the TG reduction rate (tested substances 1.0 uM, fatty liver cells from HepG2) stood at 32.7 ± 4.33%.
